Test results taken from ChEMBL document CHEMBL1629630, “Inhibition of inositol phosphorylceramide synthase by the cyclic peptide aureobasidin A” (Antimicrob Agents Chemother, 2009).
Values joined by “and” are separate entries in the source; they are usually repeats but may differ in a detail not shown here. Equal entries are not always repeated. Active and inactive are the calls of the source. The calls are words filed in the database; no cut-off is given here. Numbered stars: 1 amine (or outer) side, 2 acyl side, 3 side chain; on linkers, the order of the positions; unused ones are H or OH. Square brackets hold non-standard residues; d marks the D form. Peptide text beside a SMILES is read from it. X1 = CC[C@@H](C)[C@@H](O[*:1])C(=O)[*:2]; NMeVal(β-OH) = CN[C@H](C(=O)O)C(C)(C)O; NMeF = CN[C@@H](Cc1ccccc1)C(=O)O; aIle = CC[C@@H](C)[C@H](N)C(=O)O; NMeV = CN[C@H](C(=O)O)C(C)C

Key:
[1] = target: T1, Inositol phosphorylceramide synthase (Candida albicans (strain SC5314 / ATCC MYA-2876) (Yeast), UniProt O13332)
T1 sequence (O13332 whole entry): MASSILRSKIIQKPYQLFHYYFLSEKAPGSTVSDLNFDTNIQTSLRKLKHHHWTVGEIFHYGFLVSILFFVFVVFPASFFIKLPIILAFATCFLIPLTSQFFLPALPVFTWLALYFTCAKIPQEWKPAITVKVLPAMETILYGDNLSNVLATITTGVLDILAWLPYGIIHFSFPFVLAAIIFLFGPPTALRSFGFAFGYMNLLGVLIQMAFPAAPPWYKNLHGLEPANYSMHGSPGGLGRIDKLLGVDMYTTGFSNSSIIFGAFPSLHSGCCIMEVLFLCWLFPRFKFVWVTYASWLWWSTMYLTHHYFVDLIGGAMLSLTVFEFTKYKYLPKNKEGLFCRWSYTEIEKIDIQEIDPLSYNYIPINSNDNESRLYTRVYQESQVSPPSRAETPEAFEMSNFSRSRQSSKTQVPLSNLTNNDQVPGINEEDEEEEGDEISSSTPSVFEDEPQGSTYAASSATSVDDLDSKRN
Description: (§1) Inhibition of Candida albicans ATCC 38247 inositol phosphorylceramide synthase preincubated for 30 mins

[2] = target: Inositol phosphorylceramide synthase catalytic subunit AUR1 (Saccharomyces cerevisiae S288c, UniProt P36107); assay: Inhibition of aureobasidin A-resistant Saccharomyces cerevisiae inositol phosphorylceramide synthase preincubated for 30 mins
[3] = target: T1, Inositol phosphorylceramide synthase; assay: Reversible inhibition of Candida albicans inositol phosphorylceramide synthase
[4] = target: T2, Inositol phosphorylceramide synthase catalytic subunit AUR1 (Saccharomyces cerevisiae S288c, UniProt P36107); assay: Reversible inhibition of Saccharomyces cerevisiae inositol phosphorylceramide synthase
T2 sequence (P36107 whole entry): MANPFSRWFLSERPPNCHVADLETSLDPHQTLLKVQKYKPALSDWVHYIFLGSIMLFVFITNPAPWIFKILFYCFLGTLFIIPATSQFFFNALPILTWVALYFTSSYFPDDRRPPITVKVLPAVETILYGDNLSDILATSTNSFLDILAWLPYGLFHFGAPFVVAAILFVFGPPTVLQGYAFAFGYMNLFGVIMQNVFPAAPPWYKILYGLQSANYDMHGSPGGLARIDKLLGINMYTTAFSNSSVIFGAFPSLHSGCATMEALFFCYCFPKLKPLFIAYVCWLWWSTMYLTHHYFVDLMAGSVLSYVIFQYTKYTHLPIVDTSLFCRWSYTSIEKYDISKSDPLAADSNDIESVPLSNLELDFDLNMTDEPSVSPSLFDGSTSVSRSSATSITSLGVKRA

[5] = target: T2, Inositol phosphorylceramide synthase catalytic subunit AUR1; assay: Inhibition of Saccharomyces cerevisiae SJ21R inositol phosphorylceramide synthase preincubated for 30 mins
[6] = target: T1, Inositol phosphorylceramide synthase; assay: Inhibition of Candida albicans inositol phosphorylceramide synthase
[7] = target: T3, Inositol phosphorylceramide synthase (Candida albicans (strain SC5314 / ATCC MYA-2876) (Yeast)) (UniProt O13332); conditions: ATCC 38247
T3 sequence (whole entry): T1 sequence (O13332 whole entry)
Description: as §1

[8] = target: T3, Inositol phosphorylceramide synthase (Candida albicans (strain SC5314 / ATCC MYA-2876) (Yeast)); assay: Inhibition of Candida albicans ATCC 38247 inositol phosphorylceramide synthase; conditions: TDE = time-dependent effect
[9] = target: T3, Inositol phosphorylceramide synthase (Candida albicans (strain SC5314 / ATCC MYA-2876) (Yeast)); assay: Irreversible inhibition of Candida albicans ATCC 38247 inositol phosphorylceramide synthase
[10] = target: T2, Inositol phosphorylceramide synthase catalytic subunit AUR1; assay: Inhibition of Saccharomyces cerevisiae inositol phosphorylceramide synthase
[11] = target: T4, Aureobasidin-resistance protein (Neosartorya fumigata (Aspergillus fumigatus), UniProt Q9Y745); assay: Inhibition of Aspergillus fumigatus inositol phosphorylceramide synthase
T4 sequence (Q9Y745 whole entry): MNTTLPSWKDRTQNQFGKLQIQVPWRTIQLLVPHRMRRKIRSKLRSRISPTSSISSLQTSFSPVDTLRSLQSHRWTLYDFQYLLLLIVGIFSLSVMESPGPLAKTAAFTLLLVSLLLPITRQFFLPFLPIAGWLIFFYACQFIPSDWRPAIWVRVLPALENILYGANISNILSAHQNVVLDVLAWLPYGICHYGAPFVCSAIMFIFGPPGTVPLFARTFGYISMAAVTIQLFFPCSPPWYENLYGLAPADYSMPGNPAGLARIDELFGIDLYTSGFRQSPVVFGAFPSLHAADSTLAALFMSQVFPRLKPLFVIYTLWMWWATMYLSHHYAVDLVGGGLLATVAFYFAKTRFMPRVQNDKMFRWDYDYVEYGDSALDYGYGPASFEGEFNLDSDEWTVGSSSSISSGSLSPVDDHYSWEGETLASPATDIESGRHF

| SMILES | Ki [1] [nM] | IC50 [2] [nM] | IC50 [5] [nM] | IC50 [6] [nM] | inhibition [8] | other results |
| --- | --- | --- | --- | --- | --- | --- |
| CCCC(CCC)C(=O)N(C)C(C(=O)O[C@@H](C(=O)N(C)CCc1ccc(OC)c(OC)c1)c1ccccc1)C(C)(C)O (stereo partly drawn) | 7900 |  |  |  |  |  |
| C=C1/C=C(\C)[C@H](CC)CC(=O)[C@H](C)C(=O)[C@@](O)(CO)C/C(OC)=C/[C@@H](C)C1 [RUSTMICIN] | 16 | 27200 | 13 |  |  | IC50 [3]: 3.8 nM; IC50 [4]: 3.8 nM |
| COc1ccc(CCN(C)C(=O)[C@H](OC(=O)C(N(C)C(=O)CCCCCc2ccccc2)C(C)(C)O)c2ccccc2)cc1OC (stereo partly drawn) | 10500 |  |  |  |  |  |
| CC[C@@H](C)[C@@H]1NC(=O)[C@@H]2CCCN2C(=O)[C@H](Cc2ccccc2)N(C)C(=O)[C@H](Cc2ccccc2)NC(=O)[C@H](C(C)C)N(C)C(=O)[C@@H]([C@H](C)CC)OC(=O)[C@H](C(C)(C)O)N(C)C(=O)[C@H](CC(C)C)NC(=O)[C@H](C(C)C)N(C)C1=O [AUREOBASIDIN A] (cyclo(F[NMeF]P[aIle][NMeV]L[NMeVal(β-OH)][X1][NMeV])) | 0.18 |  |  | 0.2 | tde | Ki [2]: 1400 nM; Ki [6]: 0.55 nM; Kinact [7]: 2.5 /us and 1.8 /us; Ki [5]: 0.23 nM; inhibition [9]: Active; IC50 [10]: 0.2 nM; IC50 [11]: 0.2 nM |
| CCCCCCCCC(=O)N(C)C(C(=O)O[C@@H](C(=O)N(C)CCc1ccc(OC)c(OC)c1)c1ccccc1)C(C)(C)O (stereo partly drawn) | 11800 |  |  |  |  |  |
| CCCCCCCCCC[C@H](C)[C@@H](O)[C@@H](C)/C=C(C)/C=C(\C)C(=O)[C@H](C)/C=C(\C)C(=O)O[C@H](CO)[C@@H](O)[C@H](O)C(=O)O [KHAFREFUNGIN] | 0.43 | 11300 | 43 | 0.6 | tde |  |
